Here are results for two molecules from PMC9732821, “Neurotrophic Activity and Its Modulation by Zinc Ion of a Dimeric Peptide Mimicking the Brain-Derived Neurotrophic Factor N-Terminal Region” (ACS Chemical Neuroscience, 2022).

One experiment concerns membrane-bound BDNF. Briefly: membrane-bound BDNF, non-permeabilizing immunofluorescence in differentiated SH-SY5Y cells. The settings on record: 1 h. The format is cell-based, human. The text has this:
The possibility of mimicking the function of the full-length BDNF protein by using a linear peptide fragment encompassing the first 12 amino acids of the mature NT N-terminal was already postulated.[31] Here, we named this sequence as m-bdnf (Figure 1A) and performed a systematic comparison between the performance of the full-length human BDNF produced recombinantly in Escherichia coli([32]) and (i) m-bdnf, (ii) a dimeric peptide displaying two copies of the m-bdnf sequence covalently bound by a disulfide bridge (d-bdnf), and (iii) a monomeric peptide displaying the scrambled sequence of m-bdnf (s-bdnf). We first investigated the ability of these peptides to activate the TrkB receptor. […] Specifically, an EC50 concentration of BDNF (1 nM) or of d-bdnf (10 μM) was used in combination with the increasing concentration of d-bdnf and BDNF, respectively, and the increase of ERK phosphorylation was assessed. […] Of note, we also performed a non-permeabilizing immunofluorescence analysis to quantify the membrane-bound BDNF in differentiated SH-SY5Y cells in the absence or presence of BDNF and d-bdnf (Figure S1C,D). […] The same increment was not observed upon treatment with the d-bdnf peptide, while instead we measured a slight (∼18%) decrease of the signal possibly due to the ability of the peptide to displace endogenous BDNF at the tested dose (10 μM). […]

In a further experiment the test system is ERK. The experiment is described as follows: ERK phosphorylation in HEK 293 cells, which do not express TrkB. The format is cell-based, human. Particulars: increasing concentrations, 10 min, unstimulated control 100%. As to the method: Figure S1. Evaluation of d-bdnf mechanism of action. A) ERK phosphorylation levels detected in HEK293T cells, after stimulation (10 min) with increasing concentrations of BDNF (white columns) or d-bdnf (grey columns) normalized to the unstimulated control (CTRL, black column) set to 100%.
Dunnett’s multiple comparison test. B) ERK phosphorylation levels detected in differentiated SH-SY5Y cells, after stimulation (10 min) with a combination of a single concentration of BDNF (1 nM referred to monomeric form) with increasing concentrations (10 nM-100 µM) of d-bdnf (left); B) a combination of a single concentration of d-bdnf (10 µM) with increasing concentrations (0.074 nM – 10 nM) of BDNF (right). […] C) Representative confocal fluorescence images of SH-SY5Y cells differentiated with retinoic acid (RA) and treated acutely with BDNF, d-bdnf or a combination of the two. […] Scale bar: 50 µm.D) Scatter dot plot of the mean ± SEM fluorescence intensity of the analyzed fields (nfields) for the different samples (NT: nfields=9 and total ncells= 285; BDNF: nfields=10 and total ncells= 297; d-bdnf: nfields=10 and total ncells= 255 cells; BDNF+d-bdnf: nfields=10 and total ncells= 253 cells; **p<0.01 according to […]
HSDPARRGELSV-NH2 (m-bdnf): Rt = 25.2 min. ESI-MS: calculated for C54H91N21O18: 1322.4 […]
SRAGPHLRDVSE-NH2 (s-bdnf): Rt = 27.4 min. ESI-MS: calculated for C54H91N21O18: 1322.4 […]

On to “HSDPARRGELSVC-C-VSLEGRRAPDSH (disulfide) [d-bdnf]”, for which, in the experiment on membrane-bound BDNF (d-bdnf 10 μM), the “decrease of membrane-bound BDNF fluorescent signal” value is recorded as about 18%. In addition, the “ERK phosphorylation in HEK 293 cells” value with ERK is given as “not significantly different”.

B1: brain-derived neurotrophic factor (protein, UniProt P23560 1-247, looked up)
chain: MTILFLTMVISYFGCMKAAPMKEANIRGQGGLAYPGVRTHGTLESVNGPKAGSRGLTSLADTFEHVIEELLDEDQKVRPNEENNKDADLYTSRVMLSSQVPLEPPLLFLLEEYKNYLDAANMSMRVRRHSDPARRGELSVCDSISEWVTAADKKTAVDMSGGTVTVLEKVPVSKGQLKQYFYETKCNPMGYTKEGCRGIDKRHWNSQCRTTQSYVRALTMDSKKRIGWRFIRIDTSCVCTLTIKRGR
modifications: full-length
notes: full-length human BDNF produced recombinantly in Escherichia coli
With B1, the “increase of membrane-bound BDNF fluorescent signal” value in the experiment on membrane-bound BDNF (BDNF 150 ng/mL) was about 40%. Further, the “ERK phosphorylation in HEK 293 cells” value with ERK is “not significantly different”.
